Assay results as given in PubChem BioAssay AID276 (DTP/NCI, 2004).
Several values for one entry are separate records, joined by “and”; a condition that tells them apart may be missing. Equal values may be shown once. Inconclusive results and toxic doses are left out.

System: B6C3F1 mice, Lewis lung carcinoma iv, survival T/C
Assay: NCI In Vivo Anticancer Drug Screen. Data for tumor model Lewis Lung Carcinoma (intravenous) in B6C3F1 mice
Conditions: endpoint: median survival time, higher = longer survival
Method in brief: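 Transplantable tumor in mice; compound treated vs vehicle controls; read-out survival; value = treated/control (T/C).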

[1] = dose: 25.0 mg/kg/injection, schedule: Q01DX009 (ip), vehicle: water
[2] = dose: 50.0 mg/kg/injection, schedule: Q01DX009 (ip), vehicle: water
[3] = dose: 100.0 mg/kg/injection, schedule: Q01DX009 (ip), vehicle: water
[4] = dose: 200.0 mg/kg/injection, schedule: Q01DX009 (ip), vehicle: water
[5] = dose: 400.0 mg/kg/injection, schedule: Q01DX009 (ip), vehicle: water
[6] = dose: 12.5 mg/kg/injection, schedule: Q01DX009 (ip), vehicle: saline with Tween-80
[7] = dose: 25.0 mg/kg/injection, schedule: Q01DX009 (ip), vehicle: saline with Tween-80
[8] = dose: 50.0 mg/kg/injection, schedule: Q01DX009 (ip), vehicle: saline with Tween-80
[9] = dose: 100.0 mg/kg/injection, schedule: Q01DX009 (ip), vehicle: saline with Tween-80
[10] = dose: 200.0 mg/kg/injection, schedule: Q01DX009 (ip), vehicle: saline with Tween-80
[11] = dose: 400.0 mg/kg/injection, schedule: Q01DX009 (ip), vehicle: saline with Tween-80
[12] = dose: 400.0 mg/kg/injection, schedule: Q01DX009 (ip), vehicle: saline
[13] = dose: 800.0 mg/kg/injection, schedule: Q01DX009 (ip), vehicle: saline
[14] = dose: 6.25 mg/kg/injection, schedule: Q01DX009 (ip), vehicle: saline with Tween-80
[15] = dose: 25.0 mg/kg/injection, schedule: Q01DX009 (ip), vehicle: saline
[16] = dose: 50.0 mg/kg/injection, schedule: Q01DX009 (ip), vehicle: saline
[17] = dose: 100.0 mg/kg/injection, schedule: Q01DX009 (ip), vehicle: saline
[18] = dose: 200.0 mg/kg/injection, schedule: Q01DX009 (ip), vehicle: saline
[19] = dose: 3.12 mg/kg/injection, schedule: Q01DX009 (ip), vehicle: saline
[20] = dose: 6.25 mg/kg/injection, schedule: Q01DX009 (ip), vehicle: saline
[21] = dose: 12.5 mg/kg/injection, schedule: Q01DX009 (ip), vehicle: saline

N#CC(OC1OC(COC2OC(CO)C(O)C(O)C2O)C(O)C(O)C1O)c1ccccc1 (configuration not stated)
T/C [1]: 92 % of control | T/C [2]: 97 % of control | T/C [3]: 98 % of control | T/C [4]: 98 % of control | T/C [5]: 98 % of control | T/C (dose: 800.0 mg/kg/injection, schedule: Q01DX009 (ip), vehicle: water): 98 % of control

C1OCN2CSCC12 (configuration not stated)
T/C [6]: 103 % of control | T/C [7]: 103 % of control | T/C [8]: 102 % of control | T/C [9]: 98 % of control | T/C [10]: 96 % of control | T/C [11]: 89 % of control

C=C/C(C)=C/[C@H](C)C(=O)C[C@H](O)CC1CC(=O)NC(=O)C1
T/C (dose: 6.25 mg/kg/injection, schedule: Q01DX009 (ip), vehicle: other): 96 % of control | T/C (dose: 12.5 mg/kg/injection, schedule: Q01DX009 (ip), vehicle: other): 96 % of control | T/C (dose: 25.0 mg/kg/injection, schedule: Q01DX009 (ip), vehicle: other): 97 % of control | T/C (dose: 50.0 mg/kg/injection, schedule: Q01DX009 (ip), vehicle: other): 92 % of control | T/C (dose: 100.0 mg/kg/injection, schedule: Q01DX009 (ip), vehicle: other): 96 % of control | T/C (dose: 200.0 mg/kg/injection, schedule: Q01DX009 (ip), vehicle: other): 100 % of control

OCCCN1CCCCC1CO (configuration not stated)
T/C [12]: 96 % of control | T/C [13]: 97 % of control

c1ccc2c(c1)-c1ccccc1C1NC21 (configuration not stated)
T/C [14]: 100 % of control | T/C [6]: 106 % of control

NC(=S)c1cn(C2OC(CO)C(O)C2O)c2ncnc(N)c12 (configuration not stated)
T/C (dose: 0.62 mg/kg/injection, schedule: Q01DX009 (ip), vehicle: suspension in saline): 100 % of control | T/C (dose: 1.25 mg/kg/injection, schedule: Q01DX009 (ip), vehicle: suspension in saline): 90 % of control | T/C (dose: 2.5 mg/kg/injection, schedule: Q01DX009 (ip), vehicle: suspension in saline): 99 % of control | T/C (dose: 5.0 mg/kg/injection, schedule: Q01DX009 (ip), vehicle: suspension in saline): 94 % of control

COCCCNC1=C(C#N)C(=O)NC(c2cccc([N+](=O)[O-])c2)S1 (configuration not stated)
T/C [6]: 111 % of control | T/C [7]: 93 % of control | T/C [8]: 96 % of control | T/C [9]: 104 % of control | T/C [10]: 93 % of control | T/C [11]: 98 % of control

O=c1[nH]c(=O)n(C2CC(O)C(CO)O2)cc1F (configuration not stated)
T/C (dose: 147.0 mg/kg/injection, schedule: Q04DX003 (ip), vehicle: saline): 102 % of control | T/C (dose: 210.0 mg/kg/injection, schedule: Q04DX003 (ip), vehicle: saline): 118 % of control

O=C(NO)c1cc(O)c(O)c(O)c1
T/C [1]: 100 % of control | T/C [2]: 98 % of control | T/C [3]: 100 % of control | T/C [4]: 110 % of control | T/C [5]: 93 % of control

CC(=O)NCCCCCCNC(C)=O
T/C [15]: 92 % of control and 96 % of control | T/C [16]: 90 % of control and 92 % of control | T/C [17]: 88 % of control and 106 % of control | T/C [18]: 100 % of control and 102 % of control | T/C [12]: 96 % of control and 103 % of control | T/C [13]: 102 % of control and 105 % of control

C[n+]1c(-c2cccc3ccccc23)c2cc(N)ccc2c2ccccc21
T/C [19]: 94 % of control | T/C [20]: 90 % of control

O=C1c2ccccc2C(=O)c2c3c(cc(NCCNCCO)c21)N(CCO)CCN3
T/C (dose: 12.5 mg/kg/injection, schedule: Q01DX009 (ip), vehicle: DMSO): 101 % of control | T/C (dose: 25.0 mg/kg/injection, schedule: Q01DX009 (ip), vehicle: DMSO): 95 % of control | T/C (dose: 50.0 mg/kg/injection, schedule: Q01DX009 (ip), vehicle: DMSO): 104 % of control | T/C (dose: 100.0 mg/kg/injection, schedule: Q01DX009 (ip), vehicle: DMSO): 101 % of control | T/C (dose: 200.0 mg/kg/injection, schedule: Q01DX009 (ip), vehicle: DMSO): 96 % of control

COc1cccc2c1C(=O)c1c(O)c3c(c(O)c1C2=O)C[C@@](O)(C(C)=O)C[C@@H]3OC1CC(N)C(O)C(C)O1 (some centres not stated)
T/C (dose: 0.25 mg/kg/injection, schedule: Q01DX009 (ip), vehicle: saline): 86 % of control | T/C (dose: 0.5 mg/kg/injection, schedule: Q01DX009 (ip), vehicle: saline): 123 % of control | T/C (dose: 1.0 mg/kg/injection, schedule: Q01DX009 (ip), vehicle: saline): 112 % of control

CC[C@H](CC[C@@H](C)C1CC[C@H]2[C@@H]3CC=C4C[C@@H](OP(=O)(N5CC5)N5CC5)CC[C@]4(C)[C@H]3CC[C@]12C)C(C)C (some centres not stated)
T/C [6]: 100 % of control | T/C [7]: 95 % of control | T/C [8]: 97 % of control | T/C [9]: 100 % of control | T/C [10]: 95 % of control

CN(C)c1ncnc2c1ncn2C1OC(CO)C(N)C1O (configuration not stated)
T/C [15]: 112 % of control

NC(=O)/C=C/c1c[nH]c2nccnc12
T/C (dose: 1.56 mg/kg/injection, schedule: Q01DX009 (ip), vehicle: water): 94 % of control | T/C (dose: 3.12 mg/kg/injection, schedule: Q01DX009 (ip), vehicle: water): 88 % of control | T/C (dose: 6.25 mg/kg/injection, schedule: Q01DX009 (ip), vehicle: water): 92 % of control | T/C (dose: 12.5 mg/kg/injection, schedule: Q01DX009 (ip), vehicle: water): 94 % of control | T/C [1]: 94 % of control

OCCN1CCN(CC/C=C2/c3ccccc3Sc3ccc(Cl)cc32)CC1
T/C (dose: 1.56 mg/kg/injection, schedule: Q01DX009 (ip), vehicle: saline): 99 % of control | T/C [19]: 103 % of control | T/C [20]: 98 % of control | T/C [21]: 103 % of control | T/C [15]: 110 % of control

CC(=O)OCC1(C)NC(=O)c2ccccc2O1 (configuration not stated)
T/C [6]: 114 % of control | T/C [7]: 96 % of control | T/C [8]: 100 % of control | T/C [9]: 104 % of control | T/C [10]: 114 % of control | T/C [11]: 100 % of control

Nc1ncn(C2OC(CO)C(O)C2O)c(=O)n1 (configuration not stated)
T/C [20]: 111 % of control | T/C [21]: 120 % of control | T/C [15]: 115 % of control | T/C [16]: 123 % of control | T/C [18]: 170 % of control | T/C [12]: 161 % of control

C[CH2][Ge]([CH2]C)[CH2]C.C[CH2][Ge]([CH2]C)[CH2]C.C[CH2][Ge]([CH2]C)[O][Ge]([CH2]C)[CH2]C
T/C [14]: 105 % of control | T/C [6]: 106 % of control | T/C [7]: 106 % of control | T/C [8]: 101 % of control | T/C [9]: 113 % of control

CCN(CC)c1ccc2[nH]c3c(C(N)=O)cc(=O)c(=O)c=3oc2c1
T/C [6]: 90 % of control | T/C [7]: 107 % of control | T/C [8]: 98 % of control | T/C [9]: 93 % of control

c1ccc([P+](c2ccccc2)(c2ccccc2)c2ccccc2)cc1
T/C (dose: 0.09 mg/kg/injection, schedule: Q01DX009 (ip), vehicle: saline): 112 % of control | T/C (dose: 0.18 mg/kg/injection, schedule: Q01DX009 (ip), vehicle: saline): 112 % of control | T/C (dose: 0.37 mg/kg/injection, schedule: Q01DX009 (ip), vehicle: saline): 107 % of control | T/C (dose: 0.75 mg/kg/injection, schedule: Q01DX009 (ip), vehicle: saline): 105 % of control and 112 % of control | T/C (dose: 1.5 mg/kg/injection, schedule: Q01DX009 (ip), vehicle: saline): 103 % of control and 111 % of control | T/C (dose: 3.0 mg/kg/injection, schedule: Q01DX009 (ip), vehicle: saline): 95 % of control and 124 % of control | T/C (dose: 6.0 mg/kg/injection, schedule: Q01DX009 (ip), vehicle: saline): 94 % of control

CN(C)[C@@H]1C(=O)C(C(N)=O)=C(O)[C@@]2(O)C(=O)C3=C(O)c4c(O)ccc(Cl)c4[C@@](C)(O)[C@H]3C[C@@H]12
T/C [21]: 100 % of control | T/C [15]: 100 % of control | T/C [16]: 109 % of control | T/C [17]: 113 % of control | T/C [18]: 101 % of control

NNC(=S)N/N=C/c1ccccn1
T/C (dose: 1.56 mg/kg/injection, schedule: Q01DX009 (ip), vehicle: suspension in saline): 102 % of control | T/C (dose: 3.12 mg/kg/injection, schedule: Q01DX009 (ip), vehicle: suspension in saline): 86 % of control | T/C [20]: 115 % of control | T/C (dose: 6.25 mg/kg/injection, schedule: Q01DX009 (ip), vehicle: suspension in saline): 98 % of control | T/C [21]: 115 % of control | T/C (dose: 12.5 mg/kg/injection, schedule: Q01DX009 (ip), vehicle: suspension in saline): 108 % of control | T/C [15]: 154 % of control | T/C (dose: 25.0 mg/kg/injection, schedule: Q01DX009 (ip), vehicle: suspension in saline): 101 % of control
